# In paper PMC6001238, “Iterative Chemical Engineering of Vancomycin Leads to Novel Vancomycin Analogs With a High in Vitro Therapeutic Index” (Frontiers in Microbiology, 2018):
# Assays:
# [1] = test system: human T-lymphocyte (CEM) cells; test: Cytostatic activity, CEM cell proliferation; type: cell-based; conditions: mean ± SD of three experiments; highest concentration tested 250 µM; 3 days; read-out: Toxicity (IC50) CEM
# Outline: (§1)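 Test compounds, serially diluted, received an equal volume of cell suspension at 300,000–500,000 cells/mL. After 37°C incubation (2 days for L1210, 3 for CEM, 4 for HeLa), cells were enumerated by Coulter counting and 50%-inhibitory concentrations calculated per cell type.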
# E. faecalis VRE 29 = test: MIC, broth microdilution, vancomycin-resistant E. faecalis VRE 29 (VanA); type: cell-based, Enterococcus faecalis; conditions: for MIC: Enterococcus faecalis VRE 29 (vancomycin-resistant), read-out: MIC; for MIC-fold improvement vs. vancomycin: VRE 29, ratio of MIC of vancomycin and MIC of analogue
# Outline: (§2)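 Controls (ultrapure water; broth not inoculated) were included throughout CLSI-compliant broth microdilution. One condition supplemented analogue or comparator with 10 μM vancomycin, final level.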
# MRSA KS2 = test: MIC, broth microdilution, MRSA KS2; type: cell-based, Staphylococcus aureus
# Outline: as §2
# [2] = test system: Clostridium difficile AIU ribotype 027; test: MIC, plate drop assay, C. difficile AIU ribotype 027; type: cell-based; conditions: C. difficile AIU ribotype 027
# Experimental: (§3) Bacterial lawns of both C. difficile strains were prepared by adding 0.5 mL overnight culture to 8 mL sloppy BHI agar (0.4% agar) supplemented with 1.5 g/L CaCl2⋅2H2O and 81.2 g/L MgCl2⋅6H2O, and pouring the mixture into Petri plates. A twofold dilution series of the selected vancomycin analogs, vancomycin ([…]) and daptomycin (25 μM) was spotted (10 μL) on the bacterial lawn. Spots were air-dried and the plates were incubated overnight at 37°C in an anaerobic cabinet. Ultrapure water was included as negative control. The assay was performed in triplicate. Inhibition was observed by cleared spots.
# [3] = test system: L1210, CEM and HeLa cell lines; test: Cytostatic activity, average or summary over L1210, CEM and HeLa; type: cell-based; conditions: average of L1210, CEM and HeLa; read-out: Toxicity (IC50) Average
# Outline: as §1
# S. aureus VRSA = test: MIC, broth microdilution, vancomycin-resistant S. aureus (VRSA); type: cell-based, Staphylococcus aureus; conditions: for MIC: Staphylococcus aureus VRSA, read-out: MIC; for MIC-fold improvement vs. vancomycin: VRSA, ratio of MIC of vancomycin and MIC of analogue
# Outline: as §2
# E. faecalis VRE 53 = test: MIC, broth microdilution, vancomycin-resistant E. faecalis VRE 53 (VanA); type: cell-based, Enterococcus faecalis; conditions: for MIC: Enterococcus faecalis VRE 53 (vancomycin-resistant), read-out: MIC; for MIC-fold improvement vs. vancomycin: VRE 53, ratio of MIC of vancomycin and MIC of analogue
# Outline: as §2
# [4] = test system: human cervix carcinoma (HeLa) cells; test: Cytostatic activity, HeLa cell proliferation; type: cell-based; conditions: mean ± SD of three experiments; highest concentration tested 250 µM; 4 days; read-out: Toxicity (IC50) HeLa
# Outline: as §1
# MRSA KS1 = test: MIC, broth microdilution, MRSA KS1; type: cell-based, Staphylococcus aureus
# Outline: as §2
# [5] = test system: Murine leukemia (L1210) cells; test: Cytostatic activity, L1210 cell proliferation; type: cell-based; conditions: mean ± SD of three experiments; highest concentration tested 250 µM; 2 days; read-out: Toxicity (IC50) L1210
# Outline: as §1
# MRSA KS6 = test: MIC, broth microdilution, MRSA KS6; type: cell-based, Staphylococcus aureus
# Outline: as §2
# MRSA KS89 = test: MIC, broth microdilution, MRSA KS89; type: cell-based, Staphylococcus aureus
# Outline: as §2
# E. faecalis VRE 37 = test: MIC, broth microdilution, vancomycin-resistant E. faecalis VRE 37 (VanA); type: cell-based, Enterococcus faecalis; conditions: for MIC: Enterococcus faecalis VRE 37 (vancomycin-resistant), read-out: MIC
# Outline: as §2
# [6] = test system: Clostridium difficile ATJ ribotype 014/20; test: MIC, plate drop assay, C. difficile ATJ ribotype 014/20; type: cell-based; conditions: for MIC-fold improvement vs. vancomycin: C. difficile ATJ ribotype 014/20
# Experimental: as §3
# [7] = test system: S. aureus VSSA (ATCC 6538); test: MIC, broth microdilution, vancomycin-sensitive S. aureus (VSSA/MSSA, ATCC 6538); type: cell-based, Staphylococcus aureus; conditions: for MIC: Staphylococcus aureus VSSA, read-out: MIC; for MIC-fold improvement vs. vancomycin: VSSA, ratio of MIC of vancomycin and MIC of analogue
# Outline: as §2
# E. faecalis VSE 1 = test: MIC, broth microdilution, vancomycin-sensitive E. faecalis (VSE 1); type: cell-based, Enterococcus faecalis; conditions: for MIC: Enterococcus faecalis VSE 1 (vancomycin-sensitive), read-out: MIC; for MIC-fold improvement vs. vancomycin: VSE 1, ratio of MIC of vancomycin and MIC of analogue
# Outline: as §2
# S. aureus VISA/HIP5827 = test: MIC, broth microdilution, vancomycin-intermediate S. aureus VISA HIP5827; type: cell-based, Staphylococcus aureus; conditions: for MIC: Staphylococcus aureus VISA/HIP5827, read-out: MIC; for MIC-fold improvement vs. vancomycin: VISA/HIP5827, ratio of MIC of vancomycin and MIC of analogue
# Outline: as §2
# E. faecalis VRE 6 = test: MIC, broth microdilution, vancomycin-resistant E. faecalis VRE 6 (VanA); type: cell-based, Enterococcus faecalis; conditions: for MIC: Enterococcus faecalis VRE 6 (vancomycin-resistant), read-out: MIC; for MIC-fold improvement vs. vancomycin: VRE 6, ratio of MIC of vancomycin and MIC of analogue
# Outline: as §2
Compound,IC50 [1],MIC (E. faecalis VRE 29),MIC-fold improvement vs. vancomycin (E. faecalis VRE 29),MIC-fold improvement vs. vancomycin [2],IC50 [3],MIC (S. aureus VRSA),MIC-fold improvement vs. vancomycin (S. aureus VRSA),MIC (E. faecalis VRE 53),MIC-fold improvement vs. vancomycin (E. faecalis VRE 53),IC50 [4],IC50 [5],MIC (E. faecalis VRE 37),MIC-fold improvement vs. vancomycin [6],MIC [7],MIC-fold improvement vs. vancomycin [7],MIC (E. faecalis VSE 1),MIC-fold improvement vs. vancomycin (E. faecalis VSE 1),MIC (S. aureus VISA/HIP5827),MIC-fold improvement vs. vancomycin (S. aureus VISA/HIP5827),MIC (E. faecalis VRE 6),further results
CNC(CC(C)C)C(=O)NC1C(=O)NC(CC(N)=O)C(=O)NC2C(=O)NC3C(=O)NC(C(=O)NC(C(=O)NCCNC(=O)C=Cc4ccccc4)c4cc(O)cc(O)c4-c4cc3ccc4O)C(O)c3ccc(c(Cl)c3)Oc3cc2cc(c3OC2OC(CO)C(O)C(O)C2OC2CC(C)(N)C(O)C(C)O2)Oc2ccc(cc2Cl)C1O (stereo not shown) [Vanc-21],> 250 µM,12.5 µM,32,4,> 250 µM,1.56 µM,64,12.5 µM,32,> 250 µM,> 250 µM,12.5 µM,<1.4,0.78 µM,1,0.39 µM,4,0.78 µM,8,1.56 µM,"MIC-fold improvement vs. vancomycin (MRSA KS2; MRSA KS2, ratio of MIC of vancomycin and MIC of analogue): 2; MIC (MRSA KS2; Staphylococcus aureus MRSA KS2, read-out: MIC): 0.39 µM; MIC-fold improvement vs. vancomycin (MRSA KS1; MRSA KS1, ratio of MIC of vancomycin and MIC of analogue): 1; MIC (MRSA KS1; Staphylococcus aureus MRSA KS1, read-out: MIC): 0.78 µM; MIC-fold improvement vs. vancomycin (MRSA KS6; MRSA KS6, ratio of MIC of vancomycin and MIC of analogue): 1; MIC (MRSA KS6; Staphylococcus aureus MRSA KS6, read-out: MIC): 0.78 µM; MIC-fold improvement vs. vancomycin (MRSA KS89; MRSA KS8, ratio of MIC of vancomycin and MIC of analogue): 1; MIC (MRSA KS89; Staphylococcus aureus MRSA KS8, read-out: MIC): 0.78 µM; MIC ([6]; C. difficile ATJ ribotype 014/20, plate drop assay): >25 µM; MIC-fold improvement vs. vancomycin (E. faecalis VRE 6): 128"
CN[C@H](CC(C)C)C(=O)N[C@H]1C(=O)N[C@@H](CC(N)=O)C(=O)N[C@H]2C(=O)N[C@H]3C(=O)N[C@H](C(=O)N[C@H](C(=O)NCC(=O)Nc4ccc5cc6ccccc6cc5c4)c4cc(O)cc(O)c4-c4cc3ccc4O)[C@H](O)c3ccc(c(Cl)c3)Oc3cc2cc(c3O[C@@H]2O[C@H](CO)[C@@H](O)[C@H](O)[C@H]2O[C@H]2C[C@](C)(N)[C@H](O)[C@H](C)O2)Oc2ccc(cc2Cl)[C@H]1O [Vanc-59],23 ± 6 µM,3.13 µM,128,29,96 µM,0.20 µM,512,12.5 µM,32,88 ± 37 µM,177 ± 90 µM,1.56 µM,22,0.39 µM,2,0.20 µM,8,0.39 µM,16,1.56 µM,"MIC-fold improvement vs. vancomycin (E. faecalis VRE 37; VRE 37, ratio of MIC of vancomycin and MIC of analogue): 256; MIC-fold improvement vs. vancomycin (E. faecalis VRE 6): 128"
